One data set addresses D(3) dopamine receptor (Homo sapiens, UniProt P35462). Put plainly: DRUGMATRIX: Dopamine D3 radioligand binding (ligand: [3H] Spiperone). The data set is classed as cell membranes, CHO, Membrane. The note with it: cho.
The nature of data set [1]: DRUGMATRIX: Glutamate, Kainate radioligand binding (ligand: [3H] Kainic acid). The data set is classed as cell membranes, Rattus norvegicus, Wistar, Brain, Membrane. The conditions noted are these: Not Active = under 50% inhibition at 10 µM.
The target in another data set is Mu-type opioid receptor (Homo sapiens, UniProt P35372). Nature of the data set: DRUGMATRIX: Opiate mu (OP3, MOP) radioligand binding (ligand: [3H] Diprenorphine). The data set is classed as cell membranes, CHO-K1, Membrane. The note with it: cho-k1; Not Active = under 50% inhibition at 10 µM.
Chain of Mu-type opioid receptor (P35372 whole entry): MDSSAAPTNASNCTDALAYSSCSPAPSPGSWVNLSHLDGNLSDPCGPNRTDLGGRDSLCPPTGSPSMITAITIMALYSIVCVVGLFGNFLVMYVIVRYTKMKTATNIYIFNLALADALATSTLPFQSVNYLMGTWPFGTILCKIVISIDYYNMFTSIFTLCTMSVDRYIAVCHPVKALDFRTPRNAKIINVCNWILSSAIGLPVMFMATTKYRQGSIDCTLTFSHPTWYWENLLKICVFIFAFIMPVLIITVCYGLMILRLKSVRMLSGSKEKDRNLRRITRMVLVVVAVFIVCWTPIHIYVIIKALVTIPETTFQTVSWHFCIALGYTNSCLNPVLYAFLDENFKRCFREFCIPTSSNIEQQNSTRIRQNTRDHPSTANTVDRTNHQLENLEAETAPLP
Data set [2] is described as follows: DRUGMATRIX: Phosphodiesterase PDE3 enzyme inhibition (substrate: [3H]cAMP + cAMP). It counts as tissue-based, Homo sapiens. The note with it: platelet, Not Active = under 50% inhibition at 10 µM.
A further data set deals with T1, Interstitial collagenase (Homo sapiens, UniProt P03956).
T1 sequence (P03956 whole entry): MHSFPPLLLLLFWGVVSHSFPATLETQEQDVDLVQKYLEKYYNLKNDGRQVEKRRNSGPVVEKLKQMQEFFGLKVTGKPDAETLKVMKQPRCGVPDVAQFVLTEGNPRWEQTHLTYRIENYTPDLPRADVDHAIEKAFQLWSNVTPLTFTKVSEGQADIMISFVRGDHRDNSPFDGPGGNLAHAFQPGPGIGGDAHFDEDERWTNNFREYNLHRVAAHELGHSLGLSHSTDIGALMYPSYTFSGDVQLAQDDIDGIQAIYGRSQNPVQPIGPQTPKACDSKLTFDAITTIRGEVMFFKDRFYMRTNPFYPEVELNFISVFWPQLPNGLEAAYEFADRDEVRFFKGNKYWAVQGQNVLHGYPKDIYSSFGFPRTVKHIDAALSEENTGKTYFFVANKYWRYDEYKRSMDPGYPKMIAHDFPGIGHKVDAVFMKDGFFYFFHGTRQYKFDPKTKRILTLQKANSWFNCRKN
Put plainly: biochemical. It counts as tissue-based, Rheumatoid synovial fibroblasts.

The target of data set [3] is T2, Receptor-type tyrosine-protein phosphatase C (Homo sapiens, UniProt P08575).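 Also: inhibition of CD45 enzyme activity measured using DiFMUP as substrate; in other assays of this panel Not Active means under 50% inhibition at 10 µM.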
T2 sequence (P08575 whole entry): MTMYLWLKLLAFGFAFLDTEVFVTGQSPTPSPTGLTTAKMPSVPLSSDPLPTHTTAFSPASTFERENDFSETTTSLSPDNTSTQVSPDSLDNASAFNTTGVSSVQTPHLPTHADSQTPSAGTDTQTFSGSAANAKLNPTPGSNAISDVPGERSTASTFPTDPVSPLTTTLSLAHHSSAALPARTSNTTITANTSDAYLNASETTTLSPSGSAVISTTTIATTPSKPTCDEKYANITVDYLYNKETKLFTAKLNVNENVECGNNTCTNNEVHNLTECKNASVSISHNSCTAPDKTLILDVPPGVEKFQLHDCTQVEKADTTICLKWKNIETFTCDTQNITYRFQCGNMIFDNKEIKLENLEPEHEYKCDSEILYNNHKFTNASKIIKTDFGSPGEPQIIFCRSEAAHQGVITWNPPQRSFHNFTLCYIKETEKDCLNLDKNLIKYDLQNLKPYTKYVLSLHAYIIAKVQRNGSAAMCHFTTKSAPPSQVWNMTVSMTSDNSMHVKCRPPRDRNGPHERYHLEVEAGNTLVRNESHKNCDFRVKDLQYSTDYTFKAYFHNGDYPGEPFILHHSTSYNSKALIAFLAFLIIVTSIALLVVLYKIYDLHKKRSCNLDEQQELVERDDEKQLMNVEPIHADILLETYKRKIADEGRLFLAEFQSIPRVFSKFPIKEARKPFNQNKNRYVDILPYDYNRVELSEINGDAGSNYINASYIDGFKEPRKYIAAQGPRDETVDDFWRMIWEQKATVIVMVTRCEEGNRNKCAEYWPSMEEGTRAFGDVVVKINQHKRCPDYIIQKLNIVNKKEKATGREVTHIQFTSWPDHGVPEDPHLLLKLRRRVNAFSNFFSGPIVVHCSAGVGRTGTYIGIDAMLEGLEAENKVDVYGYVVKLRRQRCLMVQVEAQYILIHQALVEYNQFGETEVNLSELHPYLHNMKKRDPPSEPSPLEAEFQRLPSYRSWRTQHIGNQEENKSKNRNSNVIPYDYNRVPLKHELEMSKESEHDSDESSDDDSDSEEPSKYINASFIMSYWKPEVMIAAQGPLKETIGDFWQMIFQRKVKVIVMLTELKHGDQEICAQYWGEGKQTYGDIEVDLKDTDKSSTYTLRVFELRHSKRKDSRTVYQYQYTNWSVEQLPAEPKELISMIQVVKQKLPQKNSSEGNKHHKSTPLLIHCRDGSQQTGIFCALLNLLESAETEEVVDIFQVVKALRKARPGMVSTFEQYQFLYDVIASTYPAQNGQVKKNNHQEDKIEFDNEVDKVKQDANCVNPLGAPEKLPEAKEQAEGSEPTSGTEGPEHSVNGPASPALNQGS
More on the design: species or system Escherichia coli.

The next data set addresses Cytochrome P450 2C9 (Homo sapiens, UniProt P11712). The conditions noted are these: bti-tn-5b1-4.

Molecules are shown by their SMILES.

Chain of D(3) dopamine receptor (P35462 whole entry): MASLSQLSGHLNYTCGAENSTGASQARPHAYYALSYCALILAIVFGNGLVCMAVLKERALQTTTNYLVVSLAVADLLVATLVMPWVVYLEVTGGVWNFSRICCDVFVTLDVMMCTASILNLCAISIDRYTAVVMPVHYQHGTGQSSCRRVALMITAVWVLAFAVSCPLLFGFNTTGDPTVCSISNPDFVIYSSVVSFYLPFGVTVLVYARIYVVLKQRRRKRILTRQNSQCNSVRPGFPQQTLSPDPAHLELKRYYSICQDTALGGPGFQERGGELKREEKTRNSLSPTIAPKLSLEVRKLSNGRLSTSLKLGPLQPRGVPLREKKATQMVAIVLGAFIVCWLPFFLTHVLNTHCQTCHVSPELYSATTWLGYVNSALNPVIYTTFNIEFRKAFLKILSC
Chain of Cytochrome P450 2C9 (P11712 whole entry): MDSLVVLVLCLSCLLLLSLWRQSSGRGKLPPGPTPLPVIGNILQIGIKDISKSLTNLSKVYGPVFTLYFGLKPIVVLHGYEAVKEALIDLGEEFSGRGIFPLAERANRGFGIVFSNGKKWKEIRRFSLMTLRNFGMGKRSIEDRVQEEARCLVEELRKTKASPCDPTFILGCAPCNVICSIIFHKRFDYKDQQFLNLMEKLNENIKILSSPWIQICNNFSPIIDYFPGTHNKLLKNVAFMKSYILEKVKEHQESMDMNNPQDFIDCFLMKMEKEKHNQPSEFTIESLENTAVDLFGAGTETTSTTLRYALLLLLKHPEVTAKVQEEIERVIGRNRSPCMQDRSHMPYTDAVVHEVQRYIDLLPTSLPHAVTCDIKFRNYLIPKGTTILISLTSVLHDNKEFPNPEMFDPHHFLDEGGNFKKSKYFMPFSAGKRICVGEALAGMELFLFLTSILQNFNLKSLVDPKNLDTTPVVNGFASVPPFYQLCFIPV

For orientation: IC50 means the concentration needed to halve the response being measured. As to `C[C@H]1O[C@@H](n2cc(F)c(=O)[nH]c2=O)[C@H](O)[C@@H]1O` [DOXIFLURIDINE], the IC50 entry (on D(3) dopamine receptor; in data set [1]; at Mu-type opioid receptor; in data set [2]; against Interstitial collagenase; in data set [3]) was “Not Active” throughout. On Cytochrome P450 2C9, the IC50 result is “Not Active”. In addition, the Ki entry (in data set [1]; in data set [2]; on Cytochrome P450 2C9) was “Not Active” throughout.

Take `CC(C(=O)O)c1ccc2oc(-c3ccc(Cl)cc3)nc2c1` (centres undefined) [BENOXAPROFEN]: the IC50 result (at D(3) dopamine receptor; in data set [1]; at Mu-type opioid receptor; in data set [2]; on Interstitial collagenase; in data set [3]) was “Not Active” throughout. In addition, the IC50 result against Cytochrome P450 2C9 is on record as “Not Active”. The Ki entry (in data set [1]; in data set [2]; at Cytochrome P450 2C9) was “Not Active” in each case.

Regarding `Oc1c(Cl)cc(Cl)c(Cl)c1Cc1c(O)c(Cl)cc(Cl)c1Cl` [HEXACHLOROPHENE], the IC50 entry on D(3) dopamine receptor was “Not Active”; in data set [1] it was “Not Active”; on Mu-type opioid receptor it was “Not Active”; in data set [2] (read-out: IC50) it was 1850 nM; against Interstitial collagenase, “Not Active”; in data set [3], “Not Active”. Also, the IC50 result against Cytochrome P450 2C9 was “Not Active”. The Ki entry (in data set [1]; at Cytochrome P450 2C9) was “Not Active” in each case.

On to `C#C[C@]1(OC(C)=O)CC[C@H]2[C@@H]3CCC4=C[C@@H](OC(C)=O)CC[C@@H]4[C@H]3CC[C@@]21C` [ETHYNODIOL DIACETATE], for which the IC50 entry (on D(3) dopamine receptor; in data set [1]; on Mu-type opioid receptor; in data set [2]; against Interstitial collagenase; in data set [3]) was “Not Active” in each case. Besides, on Cytochrome P450 2C9, the IC50 result is “Not Active”. The Ki result (in data set [1]; in data set [2]; on Cytochrome P450 2C9) was “Not Active” each time.

As to `CCC(=O)O[C@]1(C(=O)CCl)[C@@H](C)C[C@H]2[C@@H]3CCC4=CC(=O)C=C[C@]4(C)[C@@]3(F)[C@@H](O)C[C@@]21C` [CLOBETASOL PROPIONATE], the concentration for half-maximal inhibition (IC50) result (on D(3) dopamine receptor; in data set [1]; at Mu-type opioid receptor; in data set [2]; on Interstitial collagenase; in data set [3]) was “Not Active” each time. At Cytochrome P450 2C9, the 50% inhibitory concentration (IC50) result was “Not Active”. Moreover, the Ki entry (in data set [1]; in data set [2]; at Cytochrome P450 2C9) was “Not Active” each time.

For `Nc1ccc2c3c(cccc13)C(=O)NC2=O`, the IC50 entry (on D(3) dopamine receptor; in data set [1]; on Mu-type opioid receptor; in data set [2]; against Interstitial collagenase; in data set [3]) was “Not Active” throughout. In addition, the IC50 entry against Cytochrome P450 2C9 was “Not Active”. The Ki entry (in data set [1]; in data set [2]; at Cytochrome P450 2C9) was “Not Active” in each case.

For `CCN(CC)CCOCCC1=CCC2CC1C2(C)C` (centres undefined) [MYRTECAINE], the IC50 entry (at D(3) dopamine receptor; in data set [1]; on Mu-type opioid receptor; in data set [2]; on Interstitial collagenase; in data set [3]) was “Not Active” in each case. For the same compound, on Cytochrome P450 2C9, the IC50 entry is reported as “Not Active”. In addition, the Ki entry (in data set [1]; in data set [2]; at Cytochrome P450 2C9) was “Not Active” each time.

Turning to `CCCOc1ccc(C(=O)OCCN(CC)CC)cc1N` [PROPARACAINE], the concentration for half-maximal inhibition (IC50) result (at D(3) dopamine receptor; in data set [1]; on Mu-type opioid receptor; in data set [2]; on Interstitial collagenase; in data set [3]) was “Not Active” in each case. In addition, the concentration for half-maximal inhibition (IC50) result on Cytochrome P450 2C9 is given as “Not Active”. The Ki result (in data set [1]; in data set [2]; on Cytochrome P450 2C9) was “Not Active” throughout.

As to `O=C(O)c1cccnc1Nc1cccc(C(F)(F)F)c1` [NIFLUMIC ACID], the IC50 result (on D(3) dopamine receptor; in data set [1]; at Mu-type opioid receptor; in data set [2]; against Interstitial collagenase; in data set [3]) was “Not Active” each time. For the same compound, the half-maximal inhibitory concentration (IC50) entry against Cytochrome P450 2C9 is reported as “Not Active”. Further, the Ki entry (in data set [1]; in data set [2]; on Cytochrome P450 2C9) was “Not Active” in each case.

Regarding `C#CC1(O)CC[C@H]2[C@@H]3CCC4=CC(=O)CC[C@@H]4[C@H]3CC[C@@]21CC` (some centres undefined) [NORGESTREL], the half-inhibitory concentration (IC50) entry (at D(3) dopamine receptor; in data set [1]; on Mu-type opioid receptor; in data set [2]; on Interstitial collagenase; in data set [3]) was “Not Active” throughout. The IC50 result at Cytochrome P450 2C9 is “Not Active”. In addition, the Ki result (in data set [1]; in data set [2]; on Cytochrome P450 2C9) was “Not Active” throughout.

For `CCCN(CCC)S(=O)(=O)c1ccc(C(=O)O)cc1` [PROBENECID], the IC50 entry (on D(3) dopamine receptor; in data set [1]; at Mu-type opioid receptor; in data set [2]; against Interstitial collagenase; in data set [3]) was “Not Active” each time. For the same compound, on Cytochrome P450 2C9, the IC50 result is “Not Active”. Further, the Ki result (in data set [1]; in data set [2]; on Cytochrome P450 2C9) was “Not Active” throughout.

Consider `O=C1CN=C(c2ccccc2Cl)c2cc([N+](=O)[O-])ccc2N1` [CLONAZEPAM], for which the concentration for half-maximal inhibition (IC50) result (on D(3) dopamine receptor; in data set [1]; on Mu-type opioid receptor; in data set [2]; against Interstitial collagenase; in data set [3]) was “Not Active” in each case. At Cytochrome P450 2C9, the IC50 entry is reported as “Not Active”. In addition, the Ki entry (in data set [1]; in data set [2]; at Cytochrome P450 2C9) was “Not Active” throughout.

Regarding `CC(C(=O)O)c1cccc(Oc2ccccc2)c1` (centres undefined) [FENOPROFEN], the IC50 entry (at D(3) dopamine receptor; in data set [1]; on Mu-type opioid receptor; in data set [2]; on Interstitial collagenase; in data set [3]) was “Not Active” each time. The IC50 result against Cytochrome P450 2C9 is reported as “Not Active”. The Ki result (in data set [1]; in data set [2]; on Cytochrome P450 2C9) was “Not Active” each time.

For the compound `Cc1cc2c(OCC(CNC(C)(C)C)OC(=O)c3ccccc3)cccc2[nH]1` (centres undefined) [BOPINDOLOL], the concentration for half-maximal inhibition (IC50) entry (at D(3) dopamine receptor; in data set [1]; at Mu-type opioid receptor; in data set [2]; on Interstitial collagenase; in data set [3]) was “Not Active” each time. The IC50 result against Cytochrome P450 2C9 was “Not Active”. Moreover, the Ki entry (in data set [1]; in data set [2]; at Cytochrome P450 2C9) was “Not Active” in each case.

The record behind these values is ChEMBL document CHEMBL1909046, “DrugMatrix in vitro pharmacology data”.
